SMILES strings stand for the structures.

Drawing on PMC4974565, “Rapid construction of metabolite biosensors using domain-insertion profiling” (Nature Communications, 2016), this text covers Kd for two molecules.

For the test, the target named is T1, Tre-C04 (TMBP-cpGFP biosensor; T. litoralis D-trehalose/D-maltose-binding protein) (Thermococcus litoralis, UniProt Q7LYW7).
T1 construct: gene malE; residues 46-450 of TMBP fused to five N-terminal residues of mature E. coli MBP, codon-optimised; expressed in E. coli Tuner, Ni-NTA purified
T1 sequence (Q7LYW7 374-450): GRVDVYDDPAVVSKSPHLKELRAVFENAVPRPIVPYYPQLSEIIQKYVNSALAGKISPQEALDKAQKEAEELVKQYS
T1 sequence (Q7LYW7 46-373): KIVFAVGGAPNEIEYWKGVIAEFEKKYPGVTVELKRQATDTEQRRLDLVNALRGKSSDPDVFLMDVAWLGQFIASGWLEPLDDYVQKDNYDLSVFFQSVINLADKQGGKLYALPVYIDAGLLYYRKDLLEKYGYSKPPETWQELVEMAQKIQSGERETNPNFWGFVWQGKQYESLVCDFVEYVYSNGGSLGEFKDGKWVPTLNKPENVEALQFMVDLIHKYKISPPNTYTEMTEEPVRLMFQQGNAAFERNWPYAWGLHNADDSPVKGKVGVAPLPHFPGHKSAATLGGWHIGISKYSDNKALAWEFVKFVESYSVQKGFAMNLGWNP
Nature of the test: cpGFP fluorescence dose-response, purified biosensor, four-parameter fit. The conditions noted are these: 500 nM protein; PBS; 0-50 μM sugar; Ex 485 / Em 515 nm.

As for `OC[C@H]1O[C@H](O[C@H]2[C@H](O)[C@@H](O)C(O)O[C@@H]2CO)[C@H](O)[C@@H](O)[C@@H]1O` (some centres unmarked) [maltose], the Kd worked out at 81 ± 1 nM. Take `OC[C@H]1O[C@H](O[C@H]2O[C@H](CO)[C@@H](O)[C@H](O)[C@H]2O)[C@H](O)[C@@H](O)[C@@H]1O` [trehalose]: the affinity, expressed as Kd, was 53 ± 1 nM.

In general, Kd refers to the free concentration of one partner at which half of the binding sites on the other are occupied at equilibrium, for simple one-to-one binding.
